Reference: patent publication US20200199136A1, “PIKFYVE KINASE INHIBITORS” (ACURASTEM INC., priority 2017, published 2020)

Target: PIKFYVE (Homo sapiens, UniProt Q9Y2I7)
Assay: PIKFYVE assay (luciferase ADP-Glo kinase assay, Promega)
Type: biochemical
Protocol: The activity of Compounds 1-20 was measured using a PIKFYVE assay (luciferase ADP-Glo kinase assay available from Promega Corp. of Madison, Wis.).

PIKFYVE, sequence (Q9Y2I7 whole entry): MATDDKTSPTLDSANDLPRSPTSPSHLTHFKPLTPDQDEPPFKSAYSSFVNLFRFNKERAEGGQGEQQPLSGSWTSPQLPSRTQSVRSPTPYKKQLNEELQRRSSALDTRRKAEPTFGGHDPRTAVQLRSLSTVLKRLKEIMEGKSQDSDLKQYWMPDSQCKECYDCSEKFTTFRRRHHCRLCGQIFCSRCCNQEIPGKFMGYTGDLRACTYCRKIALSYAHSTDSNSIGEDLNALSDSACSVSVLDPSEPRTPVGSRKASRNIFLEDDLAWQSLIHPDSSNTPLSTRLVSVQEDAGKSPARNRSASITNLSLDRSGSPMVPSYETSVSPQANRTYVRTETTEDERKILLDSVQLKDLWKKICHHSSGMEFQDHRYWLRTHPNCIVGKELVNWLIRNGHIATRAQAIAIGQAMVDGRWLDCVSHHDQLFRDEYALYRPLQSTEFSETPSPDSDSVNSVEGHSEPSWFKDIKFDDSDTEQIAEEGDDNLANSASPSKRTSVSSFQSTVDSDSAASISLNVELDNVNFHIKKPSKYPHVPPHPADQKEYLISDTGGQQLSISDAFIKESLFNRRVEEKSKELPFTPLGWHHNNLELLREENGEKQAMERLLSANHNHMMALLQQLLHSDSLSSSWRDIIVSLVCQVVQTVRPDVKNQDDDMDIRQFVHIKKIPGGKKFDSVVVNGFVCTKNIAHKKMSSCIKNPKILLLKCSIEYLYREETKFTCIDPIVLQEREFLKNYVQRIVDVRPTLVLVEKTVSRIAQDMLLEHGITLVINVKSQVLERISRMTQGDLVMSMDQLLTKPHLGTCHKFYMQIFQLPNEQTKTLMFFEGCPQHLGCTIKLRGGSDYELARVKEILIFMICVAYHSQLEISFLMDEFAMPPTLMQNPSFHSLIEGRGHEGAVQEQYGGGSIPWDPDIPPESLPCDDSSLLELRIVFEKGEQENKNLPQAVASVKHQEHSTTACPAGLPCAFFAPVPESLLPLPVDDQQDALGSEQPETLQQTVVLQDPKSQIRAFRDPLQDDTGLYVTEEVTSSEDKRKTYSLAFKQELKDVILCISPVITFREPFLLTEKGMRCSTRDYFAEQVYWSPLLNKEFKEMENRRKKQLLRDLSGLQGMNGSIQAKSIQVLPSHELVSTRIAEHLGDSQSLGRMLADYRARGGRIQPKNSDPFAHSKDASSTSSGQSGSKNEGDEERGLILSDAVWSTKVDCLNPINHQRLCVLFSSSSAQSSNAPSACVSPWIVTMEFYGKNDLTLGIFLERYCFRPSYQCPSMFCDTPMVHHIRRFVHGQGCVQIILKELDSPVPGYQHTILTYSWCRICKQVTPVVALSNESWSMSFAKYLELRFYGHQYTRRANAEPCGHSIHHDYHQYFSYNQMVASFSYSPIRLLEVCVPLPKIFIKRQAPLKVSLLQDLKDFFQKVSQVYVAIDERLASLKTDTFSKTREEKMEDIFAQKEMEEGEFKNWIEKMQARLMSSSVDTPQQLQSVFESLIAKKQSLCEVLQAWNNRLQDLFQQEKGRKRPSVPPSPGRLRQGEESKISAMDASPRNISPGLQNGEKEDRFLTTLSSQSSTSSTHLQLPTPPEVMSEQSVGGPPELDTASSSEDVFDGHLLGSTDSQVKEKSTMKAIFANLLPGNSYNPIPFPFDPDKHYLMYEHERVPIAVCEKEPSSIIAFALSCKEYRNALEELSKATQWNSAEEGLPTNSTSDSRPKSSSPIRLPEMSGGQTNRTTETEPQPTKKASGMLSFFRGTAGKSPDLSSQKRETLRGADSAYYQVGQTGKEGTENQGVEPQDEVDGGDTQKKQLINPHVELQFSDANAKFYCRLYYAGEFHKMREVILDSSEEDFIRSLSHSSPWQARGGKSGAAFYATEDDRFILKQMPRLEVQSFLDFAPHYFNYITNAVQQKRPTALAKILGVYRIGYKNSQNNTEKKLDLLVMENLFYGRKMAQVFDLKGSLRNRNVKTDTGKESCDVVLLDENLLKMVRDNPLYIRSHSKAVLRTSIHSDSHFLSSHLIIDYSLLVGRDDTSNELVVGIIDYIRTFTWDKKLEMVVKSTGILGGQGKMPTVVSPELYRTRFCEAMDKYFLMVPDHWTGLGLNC

| IC50 | Structure (SMILES) |
| --- | --- |
| 5 to 100 nM | COc1cccc(-c2ccn(-c3cc(N4CC[C@H]5OCC[C@H]54)nc(OCC4CCCO4)n3)n2)c1 (stereo partly drawn) [Compound 1, (3aR,6aR)-4-(6-(3-(3-methoxyphenyl)-1H-pyrazol-1-yl)-2-((tetrahydrofuran-2-yl)methoxy)pyrimidin-4-yl)hexahydro-2H-furo[3,2-b]pyrrole] |
| 1000 to 10000 nM | COC1CCN(c2cc(-n3ccc(-c4cccc(C)c4)n3)nc(OCC3CCCO3)n2)C1 (stereo not shown) [Compound 15, 4-(3-methoxypyrrolidin-1-yl)-2-((tetrahydrofuran-2-yl)methoxy)-6-(3-(m-tolyl)-1H-pyrazol-1-yl)pyrimidine] |
| 101 to 1000 nM | COc1cccc(-c2ccn(-c3cc(N4CC[C@H]5OCC[C@H]54)nc(OCCc4ccccn4)n3)n2)c1 [Compound 16, (3aR,6aR)-4-(6-(3-(3-methoxyphenyl)-1H-pyrazol-1-yl)-2-(2-(pyridin-2-yl)ethoxy)pyrimidin-4-yl)hexahydro-2H-furo[3,2-b]pyrrole] |
| 5 to 100 nM | Cc1cccc(-c2csc(-c3cc(N4CCOCC4)nc(OCC4CCCO4)n3)n2)c1 (stereo not shown) [Compound 12, 4-(2-((tetrahydrofuran-2-yl)methoxy)-6-(4-(m-tolyl)thiazol-2-yl)pyrimidin-4-yl)morpholine] |
| 101 to 1000 nM | Cc1cccc(-c2ccn(-c3cc(N4CCCOCC4)nc(OCC4CCCO4)n3)n2)c1 (stereo not shown) [Compound 14, 4-(2-((tetrahydrofuran-2-yl)methoxy)-6-(3-(m-tolyl)-1H-pyrazol-1-yl)pyrimidin-4-yl)-1,4-oxazepane] |
| 5 to 100 nM | COc1cccc(-c2ccn(-c3cc(N4CC[C@H]5OCC[C@H]54)nc(OCCC(O)CO)n3)n2)c1 (stereo partly drawn) [Compound 8, 4-((4-((3aR,6aR)-hexahydro-4H-furo[3,2-b]pyrrol-4-yl)-6-(3-(3-methoxyphenyl)-1H-pyrazol-1-yl)pyrimidin-2-yl)oxy)butane-1,2-diol] |
| 101 to 1000 nM | COc1cccc(-c2ccn(-c3cc(N4CC[C@H]5OCC[C@H]54)nc(OCCO)n3)n2)c1 [Compound 5, 2-((4-((3aR,6aR)-hexahydro-4H-furo[3,2-b]pyrrol-4-yl)-6-(3-(3-methoxyphenyl)-1H-pyrazol-1-yl)pyrimidin-2-yl)oxy)ethan-1-ol] |
| 101 to 1000 nM | Cc1cccc(-c2csc(-c3cc(N4CC[C@H]5OCC[C@H]54)nc(OCC4CCCO4)n3)n2)c1 (stereo partly drawn) [Compound 11, (3aR,6aR)-4-(2-((tetrahydrofuran-2-yl)methoxy)-6-(4-(m-tolyl)thiazol-2-yl)pyrimidin-4-yl)hexahydro-2H-furo[3,2-b]pyrrole] |

Further lines, the compound ahead of its results:

| Structure (SMILES) | IC50 |
| --- | --- |
| COc1cccc(-c2ccn(-c3cc(N4CC[C@H]5OCC[C@H]54)nc(OCCc4scnc4C)n3)n2)c1 [Compound 6, (3aR,6aR)-4-(6-(3-(3-methoxyphenyl)-1H-pyrazol-1-yl)-2-(2-(4-methylthiazol-5-yl)ethoxy)pyrimidin-4-yl)hexahydro-2H-furo[3,2-b]pyrrole] | 5 to 100 nM |
| COc1cccc(-c2ccn(-c3cc(N4CCOCC4)nc(OCCC(O)CO)n3)n2)c1 (stereo not shown) [Compound 9, 4-((4-(3-(3-methoxyphenyl)-1H-pyrazol-1-yl)-6-morpholinopyrimidin-2-yl)oxy)butane-1,2-diol] | < 5 nM |
| COc1cccc(-c2ccn(-c3cc(N4CCOCC4)nc(OCC4CCCO4)n3)n2)c1 (stereo not shown) [Compound 2, 4-(6-(3-(3-methoxyphenyl)-1H-pyrazol-1-yl)-2-((tetrahydrofuran-2-yl)methoxy)pyrimidin-4-yl)morpholine] | < 5 nM |
| COc1cccc(-c2ccn(-c3cc(N4CCOCC4)nc(OCCc4scnc4C)n3)n2)c1 [Compound 7, 4-(6-(3-(3-methoxyphenyl)-1H-pyrazol-1-yl)-2-(2-(4-methylthiazol-5-yl)ethoxy)pyrimidin-4-yl)morpholine] | < 5 nM |
| Cc1cccc(-c2ccn(-c3cc(N4CCOCC4CO)nc(CCC4CCCO4)n3)n2)c1 (stereo not shown) [Compound 20, (4-(2-(2-(tetrahydrofuran-2-yl)ethyl)-6-(3-(m-tolyl)-1H-pyrazol-1-yl)pyrimidin-4-yl)morpholin-3-yl)methanol] | 5 to 100 nM |
| Cc1cccc(-n2ccc(-c3cc(N4CCOCC4)nc(OCC4CCCO4)n3)n2)c1 (stereo not shown) [Compound 13, 4-(2-((tetrahydrofuran-2-yl)methoxy)-6-(1-(m-tolyl)-1H-pyrazol-3-yl)pyrimidin-4-yl)morpholine] | 5 to 100 nM |
| Cc1cccc(-c2ccn(-c3cc(N4CC[C@H]5OCC[C@H]54)nc(CCc4ncccn4)n3)n2)c1 [Compound 19] | 5 to 100 nM |
| c1ccc(-c2cn(-c3cc(N4CCOCC4)nc(OCCc4ccccn4)n3)cn2)cc1 [Compound 10, 4-(6-(4-phenyl-1H-imidazol-1-yl)-2-(2-(pyridin-2-yl)ethoxy)pyrimidin-4-yl)morpholine] | 1000 to 10000 nM |
| c1ccc(-c2ccn(-c3cc(N4CC[C@H]5OCC[C@H]54)nc(OCCc4ccccn4)n3)n2)cc1 [Compound 4, (3aR,6aR)-4-(6-(3-phenyl-1H-pyrazol-1-yl)-2-(2-(pyridin-2-yl)ethoxy)pyrimidin-4-yl)hexahydro-2H-furo[3,2-b]pyrrole] | 101 to 1000 nM |
| COc1cccc(-c2ccn(-c3cc(N4CCOCC4)nc(OCCC4CCOCC4)n3)n2)c1 [Compound 3, 4-(6-(3-(3-methoxyphenyl)-1H-pyrazol-1-yl)-2-(2-(tetrahydro-2H-pyran-4-yl)ethoxy)pyrimidin-4-yl)morpholine] | < 5 nM |
| Cc1cccc(-c2ccn(-c3cc(C4CCOC4)nc(OCC4CCCO4)n3)n2)c1 (stereo not shown) [Compound 17, 2-((tetrahydrofuran-2-yl)methoxy)-4-(tetrahydrofuran-3-yl)-6-(3-(m-tolyl)-1H-pyrazol-1-yl)pyrimidine] | 5 to 100 nM |
